Experimental findings from patent US20230406883A1, “COMPOUNDS AND THEIR USE IN TREATMENT OF TACHYKININ RECEPTOR MEDIATED DISORDERS” (Embark Biotech ApS, priority 2020, published 2023) are described below.

For one data set, the target named is T1, hNK2R (Homo sapiens, UniProt P21452).
T1 construct: host or cells: COS-7
T1 sequence (P21452 1-398): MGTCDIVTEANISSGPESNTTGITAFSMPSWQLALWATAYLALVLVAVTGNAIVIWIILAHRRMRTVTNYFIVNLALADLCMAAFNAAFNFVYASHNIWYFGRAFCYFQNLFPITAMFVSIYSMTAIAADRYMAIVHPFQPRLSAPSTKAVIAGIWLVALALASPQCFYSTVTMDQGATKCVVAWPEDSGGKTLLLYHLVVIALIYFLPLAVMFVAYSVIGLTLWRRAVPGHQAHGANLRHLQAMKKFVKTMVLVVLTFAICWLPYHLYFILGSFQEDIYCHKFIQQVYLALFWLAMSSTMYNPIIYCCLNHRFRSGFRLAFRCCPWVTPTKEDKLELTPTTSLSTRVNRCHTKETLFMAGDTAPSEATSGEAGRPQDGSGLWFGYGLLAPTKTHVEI
In words: Hithunter cAMP assay (Gs-coupling) in transfected COS-7 cells. The class given is cell-based. The following applies: COS-7 cells. The protocol: As a secondary measure of agonist-induced G-protein coupled receptor (GPCR) activation cyclin adenosine monophosphate (cAMP) was measured by the Hithunter cAMP-assay from DiscoverX. Assays were carried out using COS-7 cells transiently transfected by calcium phosphate transfection with a vector pcDNA3.1(+) encoding one of the indicated receptors (Genscript). Briefly, DNA mixed with CaCl2 (2 M) and TE-buffer (10 mM Tris-HCl, 1 mM EDTA, pH 7.5) was dropwise added to 2×HBS (50 mM HEPES, 280 mM NaCl, 1.5 mM NaH2PO4, pH 7.2) and incubated for 45 min at room temperature (22±2° C.). The mixture and a final concentration of 100 μM Chloroquine were added to the cells and left to incubate for 5 hours at 37° C. under standard cell culture conditions (10% CO2) before changing medium to fresh maintenance medium.
The cAMP-assay takes advantage of the tachykinin receptors' ability to induce production of the cAMP second messenger upon agonist (ligand) binding on receptor expressing cells. Production of cAMP stems from receptor coupling to Gs-protein although coupling to Gq-protein (IP3-production) is considered the primary signalling mechanism by tachykinin receptors.
The assay was performed the day after transfection. Briefly, maintenance medium was aspirated, and plates were washed ×1 in HBSS before adding assay buffer (HBSS+1 mM IBMX), pre-incubated for 30 min at 37° C. followed by 15 min incubation with agonist (ligand) at 37° C. After incubation, plates were subjected to cell lysis and anti-cAMP-antibody incubation as described by manufacturer. Luminescence was measured with EnVision Multimode Plate Reader from Perkin Elmer.

The next data set can be described thus: in vivo. Also noted: species or system mice. As to conditions: mouse; for half-life: sc, 0.5 mg/kg. The protocol:
Pharmacokinetics: To evaluate the in vivo half-life of individual peptide analogues we used wild type lean mice at around 10 weeks of age injected once with a peptide analogue. For each sample time point 3-4 mice were used and blood was drawn from the submandibular vein at indicated time points following injection. Prior to injection mice were given ad libitum access to standard chow diet. Mice were subcutaneously injected with 0.5 mg/kg peptide analogue in a volume of 2 ml/kg. The amount of peptide analogue and metabolite(s) present in blood samples were measured by TF-LC-MS and MetID-LC-MS, respectively. Sample preparation: One volume of plasma is precipitated with three volumes of ethanol (with internal standard). The mixture is centrifuged at 13000 g for 20 min. One volume of supernatant is diluted with two volumes of Milli-Q water (1% formic acid). Calibration curve: peptide analogue was spiked into blank mouse plasma. Range: 0.5 to 2000 nM (linear 1/x2).

The next data set concerns the target T2, hNK3R (Homo sapiens, UniProt P29371).
T2 construct: host or cells: COS-7
T2 sequence (P29371 1-465): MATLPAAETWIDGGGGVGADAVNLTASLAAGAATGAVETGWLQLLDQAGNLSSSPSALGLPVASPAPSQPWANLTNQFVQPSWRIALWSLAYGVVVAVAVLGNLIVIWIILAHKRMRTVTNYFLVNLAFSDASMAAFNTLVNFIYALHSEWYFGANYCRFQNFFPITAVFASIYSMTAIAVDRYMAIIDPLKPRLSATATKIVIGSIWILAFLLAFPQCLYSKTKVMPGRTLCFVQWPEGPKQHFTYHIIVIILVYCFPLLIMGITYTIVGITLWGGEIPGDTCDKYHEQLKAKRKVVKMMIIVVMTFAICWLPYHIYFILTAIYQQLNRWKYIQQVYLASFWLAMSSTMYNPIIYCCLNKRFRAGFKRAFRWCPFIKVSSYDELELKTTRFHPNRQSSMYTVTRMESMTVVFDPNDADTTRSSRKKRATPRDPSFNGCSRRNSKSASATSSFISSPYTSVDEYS
The data set is described as follows: IP3 assay (inositol trisphosphate, 3H-myoinositol) in transiently transfected COS-7 cells. As to conditions: for EC50: 0.2% ovalbumin buffer, read-out: hNK3, IP3 EC50. The class given is cell-based. In a few lines:
(§1)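 COS-7 cells were transiently transfected with receptor plasmid and labelled with ³H-myo-inositol. Cells were lysed in formic acid, and ³H-inositol phosphates were captured on SPA YSI beads and counted.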

The next data set addresses T3, hNK1R (Homo sapiens, UniProt P25103).
T3 construct: host or cells: COS-7
Described as above. Type of data set: cell-based. The following applies: for EC50: 0.2% ovalbumin buffer. The procedure, abridged:
as §1

Where [1] appears, read: COS-7 cells, figure legends: percent of 10^-6 M NKA.

“And” between values parts separate entries of the source, which are not always exact repeats. Equal values may be shown once. Read-outs that look alike come from different tables or passages of the source. Numbered stars: 1 amine (or outer) side, 2 acyl side, 3 side chain; on linkers, the order of the positions; unused ones are H or OH. Square brackets hold non-standard residues; d marks the D form. Peptide text beside a SMILES is read from it. * marks the point of attachment. C18 diacid = O=C(O)CCCCCCCCCCCCCCCCC(=O)*; γGlu = O=C(O)[C@H](CCC(=O)[*:2])N[*:1]; NMeL = CN[C@@H](CC(C)C)C(=O)O; hSer = N[C@@H](CCO)C(=O)O; Nle = CCCC[C@H](N)C(=O)O; AEEA = NCCOCCOCC(=O)O

T3 sequence (P25103 whole entry): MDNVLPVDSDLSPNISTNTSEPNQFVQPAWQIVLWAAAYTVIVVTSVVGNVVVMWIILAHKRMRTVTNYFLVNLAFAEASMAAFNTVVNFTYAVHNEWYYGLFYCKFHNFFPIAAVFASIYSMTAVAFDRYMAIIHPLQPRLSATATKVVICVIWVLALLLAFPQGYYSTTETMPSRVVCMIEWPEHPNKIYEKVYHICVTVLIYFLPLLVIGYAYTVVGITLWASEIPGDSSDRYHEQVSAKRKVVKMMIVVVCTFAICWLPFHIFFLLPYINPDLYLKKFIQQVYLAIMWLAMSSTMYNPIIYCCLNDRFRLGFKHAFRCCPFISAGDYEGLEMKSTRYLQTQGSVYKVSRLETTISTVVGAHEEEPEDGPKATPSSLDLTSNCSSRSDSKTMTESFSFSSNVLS

As to `CCCC[C@H](NC(=O)[C@H](CC(C)C)N(C)C(=O)CNC(=O)[C@@H](NC(=O)[C@H](Cc1ccc(O)cc1)NC(=O)[C@H](CCCCN)NC(=O)[C@H](CC(=O)O)NC(=O)COCCOCCNC(=O)COCCOCCNC(=O)CC[C@H](NC(=O)CCCCCCCCCCCCCCCCC(=O)O)C(=O)O)C(C)C)C(N)=O` [compound 305, *Asp;Lys;Tyr;Val;Gly;NmLeu;Nle;NH2] ({C18 diacid-γGlu-AEEA-AEEA}-DKYVG[NMeL][Nle]-NH2), at hNK2R, the EC50 is 0.7 nM and ~0.8 nM; the “hNK2R, cAMP Efficacy” value was 50% and 70%. In “in vivo”, the “Plasma exposure [2 h]” value came to 5.364 µM and the “Plasma exposure [26 h]” value worked out at 183 nM. In the data set “in vivo” (330 nmol/kg), this compound returned an AUC of 28.8 µM·h and a Cmax of 3.45 µM. For the same compound, in the data set “in vivo” (Half-life), the half-life was 330 min. The EC50 at hNK3R (COS-7 cells) was ~730 nM and ~720 nM. In addition, the “hNK1R, IP3 Efficacy” value on hNK1R is reported as 17-50%. Further, the EC50 on hNK1R (COS-7 cells) was 520 nM and 450 to 3500 nM. In addition, the “hNK1R, IP3 Efficacy” value at hNK1R (setting [1]) is 30% and ~30%.

For the compound `COCC[C@H](NC(=O)[C@H](CC(C)C)N(C)C(=O)CNC(=O)[C@@H](NC(=O)[C@H](Cc1ccccc1)NC(=O)[C@H](CCCCN)NC(=O)[C@H](CC(=O)O)NC(=O)COCCOCCNC(=O)COCCOCCNC(=O)CC[C@H](NC(=O)CCCCCCCCCCCCCCCCC(=O)O)C(=O)O)[C@@H](C)O)C(N)=O` [compound 383, *Asp;Lys;Phe;Thr;Gly;NmLeu;Metox;NH2] ({C18 diacid-γGlu-AEEA-AEEA}-DKFTG[NMeL][hSer](Me)-NH2), the EC50 at hNK2R was about 11 nM; at hNK3R (COS-7 cells), 313 nM; on hNK1R (COS-7 cells) it was 290 nM. Also, the “hNK2R, cAMP Efficacy” value at hNK2R came out at 89%. The half-life in the data set “in vivo” (Half-life) was at least 600 min. At hNK3R (setting [1]), the “hNK3, IP3 Efficacy” value is 60%. The “hNK1R, IP3 Efficacy” value on hNK1R (setting [1]) is reported as 50%.

Consider `COCC[C@H](NC(=O)[C@H](CC(C)C)N(C)C(=O)CNC(=O)[C@@H](NC(=O)[C@H](Cc1ccc(O)cc1)NC(=O)[C@H](CCCCN)NC(=O)[C@H](CC(=O)O)NC(=O)COCCOCCNC(=O)COCCOCCNC(=O)CC[C@H](NC(=O)CCCCCCCCCCCCCCCCC(=O)O)C(=O)O)C(C)C)C(N)=O` [compound 344, *Asp;Lys;Tyr;Val;Gly;NmLeu;Metox;NH2] ({C18 diacid-γGlu-AEEA-AEEA}-DKYVG[NMeL][hSer](Me)-NH2), for which the EC50 on hNK2R was 28 nM; at hNK1R (COS-7 cells), about 160 nM. Moreover, the “hNK2R, cAMP Efficacy” value on hNK2R was 96% and 100%. For the same compound, the results for the half-life in “in vivo” and in “in vivo” (Half-life) were 618 min and at least 600 min, respectively. Also, the “hNK1R, IP3 Efficacy” value on hNK1R (setting [1]) was 30% and 50% and ~30%.

For the compound `CCCC[C@H](NC(=O)[C@H](CC(C)C)N(C)C(=O)CNC(=O)[C@@H](NC(=O)[C@H](Cc1ccccc1)NC(=O)[C@H](CCCCN)NC(=O)[C@H](CC(=O)O)NC(=O)COCCOCCNC(=O)COCCOCCNC(=O)CC[C@H](NC(=O)CCCCCCCCCCCCCCCCC(=O)O)C(=O)O)C(C)C)C(N)=O` [compound 304, *Asp;Lys;Phe;Val;Gly;NmLeu;Nle;NH2], the EC50 at hNK2R is 2.3 nM; on hNK3R (COS-7 cells) it was 66 nM and 65 nM and 60 to 7000 nM; on hNK1R (COS-7 cells), 34 nM and 40 nM and 12 to 250 nM. Further, at hNK2R, the “hNK2R, cAMP Efficacy” value was found to be 100%. The same compound came in with a half-life in “in vivo” (Half-life) of at least 600 min. Also, the “hNK3, IP3 Efficacy” value at hNK3R was 100%; on hNK3R (setting [1]) it was 65% and 60% and 85-100%. For the same compound, the “hNK1R, IP3 Efficacy” value at hNK1R (setting [1]) is 80% and 80-85%.
